Common to all, as to type: cell-based
The target in assay [1] is T1, MRGPRX2 (Homo sapiens, UniProt Q96LB1).
T1 sequence (Q96LB1 1-330): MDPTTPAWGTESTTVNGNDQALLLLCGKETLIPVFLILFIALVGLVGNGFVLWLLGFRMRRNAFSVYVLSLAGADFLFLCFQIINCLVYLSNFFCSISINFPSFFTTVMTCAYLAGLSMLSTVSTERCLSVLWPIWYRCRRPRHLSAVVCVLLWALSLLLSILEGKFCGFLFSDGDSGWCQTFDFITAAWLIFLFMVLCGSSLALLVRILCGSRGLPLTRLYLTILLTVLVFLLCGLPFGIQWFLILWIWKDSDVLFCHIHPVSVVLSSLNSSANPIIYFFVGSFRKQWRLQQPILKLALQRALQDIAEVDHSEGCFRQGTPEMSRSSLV
Kind of assay: MRGPRX2 β-Arrestin assay. Particulars: PathHunter CHO-K1 MRGPRX2 β-Arrestin cell line; agonist Cortistatin 14 0.25 μM. The arrangement: host or cells: PathHunter CHO-K1. From the text: Example C: MRGPRX2 β-Arrestin Assay
This assay measures compound inhibition of β-Arrestin recruitment, which is part of the G protein-independent pathway that results from the ligand-activated GPCR phosphorylation by specific GPCR kinases. The PathHunter CHO-K1 MRPGRX2 B-Arrestin Cell line stably expressing ProLink tagged MRGPRX2 and Enzyme Acceptor Tagged B-Arrestin was purchased from Eurofins DiscoverX, (Fremont, CA).
The cells were maintained in culture medium from the Europhins DiscoverX Cell Culture Kit-107 which includes FBS, hygromycin B and G418. For the assay, the cells were harvested and were resuspended with Cell Plating Reagent 2 (Eurofins DiscoverX). Cells were added 10000 cells in 25 µL/well to a 384-well black cell culture plate (Greiner VWR, Radnor, PA) which contained 125 nL/well of compound at a selected serially diluted concentration range or DMSO. The plate was incubated at 37° C. with 5% CO2 for 1 h. 2 μL/well of agonist Cortistatin 14 was diluted in Protein Dilution Buffer, (Eurofins DiscoverX) for a final concentration of 0.25 μM, was added and the plate was incubated at 37° C. with 5% CO2 for 90 min. 14 μL/well of Detection Reagent Mix (PathHunter Detection Kit, Eurofins DiscoverX) was added to the plates and further incubated for 1 h in the dark. Plates were read on the PHERAstar microplate reader (BMG Labtech Cary, NC) measuring luminescence 0.1 to 1 second per well. Data was normalized using DMSO only wells and wells with high concentration of reference antagonist as controls. Compound IC50 curves were globally fitted with 3- or 4-parameter Hill equation in a Genedata Screener (Genedata Basel, Switzerland).

In assay [2] the target is T1, MRGPRX2. Kind of assay: MRGPRX2 FLIPR calcium mobilization assay. More on the design: host or cells: CHO-K1. The note with it: CHO-K1 cells stably expressing human MRGPRX2; Ca2+ release, agonist Cortistatin-14 at EC80. The protocol:
Example A. MRGPRX2 FLIPR Calcium Mobilization Assay
Chinese hamster ovary (CHO-K1) cells stably expressing human MRGPRX2 were purchased from Genescript (Piscataway, NJ). The cells were maintained in culture medium (Ham's F-12K) containing 10% (v/v) FBS, 200 μg/mL Zeocin, 100 units/mL penicillin G and 100 μg/mL streptomycin (Life Technologies, Carlsbad, CA). For the assay, the cells were harvested and resuspended with culture medium without Zeocin before plating at 8000 cells per well in 20 μL in 384-well black clear bottom cell culture plates (VWR, Radnor, PA). After 24 h culture at 37° C. and 5% CO2, the cells were loaded with 20 μL/well of calcium dye (FLIPR Calcium 6 Assay Kit, Molecular Devices, San Jose, CA) diluted in loading buffer (1×Hank's Balanced Salt Solution (HBSS), 5 mM probenecid, 20 mM 4-(2-hydroxyethyl)-1-piperazineethanesulfonic acid (HEPES), pH 7.4, VWR, Radnor, PA) followed with 45 min incubation at 37° C. and 40 min at room temperature in the dark. Cells were then treated with the addition of 10 uL/well test compounds with a range of increasing concentrations diluted in the assay buffer (1×HBSS, 20 mM HEPES, pH 7.4, VWR, Radnor, PA) with FLIPR Penta (Molecular Devices. San Jose, CA) and incubated for 30 min. at room temperature. Ca^2+ release was measured with FLIPR Penta with 10 seconds basal fluorescence measurement, then 12.5 μL of 5× agonist Cortistatin-14 (Tocris, Minneapolis, MN) at final concentration corresponding to the EC80 were added followed with continued fluorescence signal monitoring for an additional 110 seconds. The base line adjusted (median of first 10s base line) max value of the Relative Fluorescence Unit (RFU) was plotted against compound concentrations. Wells with no compound were served as the positive controls, and wells with high concentration of reference antagonist were used as negative controls. IC50 curves were globally fitted with 3- or 4-parameter Hill equation in a Genedata Screener (Genedata Basel, Switzerland).
On the technique in general: A change in cytosolic calcium serves as a functional read-out for many receptors and channels.

Assay [3] deals with T1, MRGPRX2. Put plainly: MRGPRX2 IP1 HTRF assay. The arrangement: host or cells: CHO-K1. Particulars: CHO-K1 cells stably expressing human MRGPRX2; IP1 accumulation, agonist Cortistatin 14 1 μM. (In TR-FRET formats the signal depends on donor and acceptor labels being close together.)

The structures appear in SMILES notation.

On to `NS(=O)(=O)N1CC(CNc2cc(C(F)(F)F)nc3ccc(C(F)(F)F)cc23)(c2ccc(F)cc2)C1` [Example 1, 3-(((2,6-Bis(trifluoromethyl)quinolin-4-yl)amino)methyl)-3-(4 fluorophenyl)azetidine-1-sulfonamide], for which the IC50 at MRGPRX2 [1], at MRGPRX2 [2] and on MRGPRX2 [3] was 0.1 to 100 nM in each case.
As to `Cc1ccc2nc(C(F)(F)F)cc(NCC3(c4ccc(F)cc4)CN(S(N)(=O)=O)C3)c2c1` [Example 2, 3-(4-Fluorophenyl)-3-(((6-methyl-2-(trifluoromethyl)quinolin-4-yl)amino)methyl)azetidine-1-sulfonamide], the IC50 on MRGPRX2 [1], at MRGPRX2 [2] and at MRGPRX2 [3] was 0.1 to 100 nM throughout.
Regarding `NS(=O)(=O)N1CC(CNc2cc(C(F)(F)F)nc3ccc(Br)cc23)(c2ccc(F)cc2)C1` [Example 3, 3-(((6-Bromo-2-(trifluoromethyl)quinolin-4-yl)amino)methyl)-3-(4-fluorophenyl)azetidine-1-sulfonamide], the IC50 on MRGPRX2 [1], at MRGPRX2 [2] and at MRGPRX2 [3] was 0.1 to 100 nM in each case.
`NS(=O)(=O)N1CC(CNc2cc(C(F)(F)C(F)(F)F)nc3ccc(Cl)cc23)(c2ccc(F)cc2)C1` [Example 4, 3-(((6-Chloro-2-(perfluoroethyl)quinolin-4-yl)amino)methyl)-3-(4-fluorophenyl)azetidine-1-sulfonamide]: the IC50 at MRGPRX2 [1], on MRGPRX2 [2] and at MRGPRX2 [3] was 0.1 to 100 nM each time.
As to `NS(=O)(=O)N1CC(CNc2cc(C(F)F)nc3ccc(Cl)cc23)(c2ccc(F)cc2)C1` [Example 5, 3-(((6-Chloro-2-(difluoromethyl)quinolin-4-yl)amino)methyl)-3-(4-fluorophenyl)azetidine-1-sulfonamide], the IC50 on MRGPRX2 [1], on MRGPRX2 [2] and on MRGPRX2 [3] was 0.1 to 100 nM throughout.
Take `NC(=O)N1CC(CNc2cc(C(F)(F)F)nc3ccc(Br)cc23)(c2ccc(F)cn2)C1` [Example 6, 3-(((6-Bromo-2-(trifluoromethyl)quinolin-4-yl)amino)methyl)-3-(5-fluoropyridin-2-yl)azetidine-1-carboxamide]: the IC50 on MRGPRX2 [1], on MRGPRX2 [2] and on MRGPRX2 [3] was 0.1 to 100 nM in each case.
Take `N#CN=C(N)N1CC(CNc2cc(C(F)(F)F)nc3ccc(Cl)cc23)(c2ccc(F)cc2)C1` [Example 7, 3-(((6-Chloro-2-(trifluoromethyl)quinolin-4-yl)amino)methyl)-N′-cyano-3-(4-fluorophenyl)azetidine-1-carboximidamide]: the IC50 at MRGPRX2 [1], at MRGPRX2 [2] and at MRGPRX2 [3] was 0.1 to 100 nM each time.
For the molecule `O=C1CC(CNc2cc(C(F)(F)F)nc3ccc(Cl)cc23)(c2ccccc2)CN1` (stereo not shown) [Example 8, 4-(((6-Chloro-2-(trifluoromethyl)quinolin-4-yl)amino)methyl)-4-phenylpyrrolidin-2-one], the IC50 at MRGPRX2 [1], at MRGPRX2 [2] and on MRGPRX2 [3] was 0.1 to 100 nM in each case.
Regarding `N#CN=C(N)N1CCC(CNc2cc(C(F)(F)F)nc3ccc(Cl)cc23)(c2ccccc2)CC1` [Example 9, 4-(((6-Chloro-2-(trifluoromethyl)quinolin-4-yl)amino)methyl)-N′-cyano-4-phenylpiperidine-1-carboximidamide], the IC50 at MRGPRX2 [1], on MRGPRX2 [2] and on MRGPRX2 [3] was 0.1 to 100 nM in each case.
Regarding `NS(=O)(=O)N1CC(CNc2cc(C(F)(F)F)nc3ccc(F)cc23)(n2cc(F)cn2)C1` [Example 10, 3-(4-Fluoro-1H-pyrazol-1-yl)-3-(((6-fluoro-2-(trifluoromethyl)quinolin-4-yl)amino)methyl)azetidine-1-sulfonamide], the IC50 at MRGPRX2 [1], at MRGPRX2 [2] and at MRGPRX2 [3] was 0.1 to 100 nM throughout.
For the molecule `NS(=O)(=O)N1CCC(CNc2cc(C(F)(F)F)nc3ccc(F)cc23)(c2ccccc2)CC1` [Example 11, 4-(((6-Fluoro-2-(trifluoromethyl)quinolin-4-yl)amino)methyl)-4-phenylpiperidine-1-sulfonamide], the IC50 on MRGPRX2 [1], at MRGPRX2 [2] and at MRGPRX2 [3] was 0.1 to 100 nM each time.
On to `NS(=O)(=O)N1CCC(CNc2cc(C(F)(F)F)nc3ccc(Cl)cc23)(c2ccccc2)CC1` [Example 12, 4-(((6-Chloro-2-(trifluoromethyl)quinolin-4-yl)amino)methyl)-4-phenylpiperidine-1-sulfonamide], for which the IC50 on MRGPRX2 [1], at MRGPRX2 [2] and on MRGPRX2 [3] was 0.1 to 100 nM in each case.
Take `CNC(=O)N1CCC(CNc2cc(C(F)(F)F)nc3ccc(Cl)cc23)(c2ccccc2)C1` (stereo not shown) [Example 14, 3-(((6-Chloro-2-(trifluoromethyl)quinolin-4-yl)amino)methyl)-N-methyl-3-phenylpyrrolidine-1-carboxamide]: the half-inhibitory concentration (IC50) at MRGPRX2 [1], on MRGPRX2 [2] and on MRGPRX2 [3] was 0.1 to 100 nM throughout.
Regarding `FC(F)(F)c1cc(NCC2(c3ccccc3)CCOC2)c2cc(Cl)ccc2n1` (stereo not shown) [Example 16, 6-Chloro-N-((3-phenyltetrahydrofuran-3-yl)methyl)-2-(trifluoromethyl)quinolin-4-amine], the IC50 on MRGPRX2 [1], on MRGPRX2 [2] and at MRGPRX2 [3] was 0.1 to 100 nM in each case.
For `FC(F)(F)c1cc(NCC2(c3ccccc3)CCOCC2)c2cc(Cl)ccc2n1` [Example 17, 6-Chloro-N-((4-phenyltetrahydro-2H-pyran-4-yl)methyl)-2-(trifluoromethyl)quinolin-4-amine], the IC50 at MRGPRX2 [1], on MRGPRX2 [2] and at MRGPRX2 [3] was 0.1 to 100 nM throughout.
Regarding `NS(=O)(=O)N1CC(CNc2cc(C(F)(F)F)nc3ccc(Cl)cc23)(n2ccc(F)n2)C1` [Example 18, 3-(((6-Chloro-2-(trifluoromethyl)quinolin-4-yl)amino)methyl)-3-(3-fluoro-1H-pyrazol-1-yl)azetidine-1-sulfonamide], the IC50 at MRGPRX2 [1], at MRGPRX2 [2] and on MRGPRX2 [3] was 0.1 to 100 nM in each case.
Regarding `Nc1nc(N2CCC(CNc3cc(C(F)(F)F)nc4ccc(Cl)cc34)(c3ccccc3)CC2)nn1CCN1CCOCC1` [Example 79, N-((1-(5-Amino-1-(2-morpholinoethyl)-1H-1,2,4-triazol-3-yl)-4-phenylpiperidin-4-yl)methyl)-6-chloro-2-(trifluoromethyl)quinolin-4-amine], the IC50 at MRGPRX2 [1] and on MRGPRX2 [2] was 0.1 to 100 nM in each case.
On to `NS(=O)(=O)N1CC(CNc2cc(C(F)(F)F)nc3ccc(Cl)cc23)(c2nc3cc(F)ccc3s2)C1` [Example 85, 3-(((6-Chloro-2-(trifluoromethyl)quinolin-4-yl)amino)methyl)-3-(5-fluorobenzo[d]thiazol-2-yl)azetidine-1-sulfonamide], for which the IC50 at MRGPRX2 [1] and at MRGPRX2 [2] was 0.1 to 100 nM each time.

For orientation: IC50 means the point on the concentration scale where inhibition reaches its midpoint.

Values taken from patent publication US20250084063A1 (Incyte Corporation, priority 2023, published 2025).
